Source: PubChem BioAssay AID1963849 (Molecular Pharmacology Branch, DTP, NCI, 2024)

System: 299254-011-R-J1-PDC complex spheroid viability
Assay: Anticancer human tumor 299254-011-R-J1-PDC patient-derived melanoma cell line growth inhibition [POLQ]
Details: for IC50: curve of first compound; for viability, T/C: stronger effect = lower value; active = viability on the fitted dose curve at most 10% of control; inactive = the rest
Method in brief: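 PDC + HUVEC + MSC complex spheroids; POLQ inhibitors ± partner drugs; top conc. at/near clinical Cmax, else 10 microM (SN-38 1 microM), half-log dilutions; 37 degrees C, 5% CO2.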

[1] = second compound 0.0316 µM, first compound 0.0316 µM
[2] = second compound 0.0316 µM, first compound 0.1 µM
[3] = second compound 0.0316 µM, first compound 0.316 µM
[4] = second compound 0.0316 µM, first compound 1 µM
[5] = second compound 0.0316 µM, first compound 3.16 µM
[6] = second compound 0.0316 µM, first compound 10 µM
[7] = second compound 0.1 µM, first compound 0.0316 µM
[8] = second compound 0.1 µM, first compound 0.1 µM
[9] = second compound 0.1 µM, first compound 0.316 µM
[10] = second compound 0.1 µM, first compound 1 µM
[11] = second compound 0.1 µM, first compound 3.16 µM
[12] = second compound 0.1 µM, first compound 10 µM
[13] = second compound 0.316 µM, first compound 0.0316 µM
[14] = second compound 0.316 µM, first compound 0.1 µM
[15] = second compound 0.316 µM, first compound 0.316 µM
[16] = second compound 0.316 µM, first compound 1 µM
[17] = second compound 0.316 µM, first compound 3.16 µM
[18] = second compound 0.316 µM, first compound 10 µM
[19] = second compound 1 µM, first compound 0.0316 µM
[20] = second compound 1 µM, first compound 0.1 µM
[21] = second compound 1 µM, first compound 0.316 µM
[22] = second compound 1 µM, first compound 1 µM
[23] = second compound 1 µM, first compound 3.16 µM
[24] = second compound 1 µM, first compound 10 µM
[25] = second compound 3.16 µM, first compound 0.0316 µM
[26] = second compound 3.16 µM, first compound 0.1 µM
[27] = second compound 3.16 µM, first compound 0.316 µM
[28] = second compound 3.16 µM, first compound 1 µM
[29] = second compound 3.16 µM, first compound 3.16 µM
[30] = second compound 3.16 µM, first compound 10 µM
[31] = second compound 10 µM, first compound 0.0316 µM
[32] = second compound 10 µM, first compound 0.1 µM
[33] = second compound 10 µM, first compound 0.316 µM
[34] = second compound 10 µM, first compound 1 µM
[35] = second compound 10 µM, first compound 3.16 µM
[36] = second compound 10 µM, first compound 10 µM
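Note: spheroids exposed to drugs for one week before measurement.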
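Throughout, for viability, T/C: percent viability relative to DMSO vehicle control taken as 100%.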

CC1COCCN1c1cc(C2(S(C)(=N)=O)CC2)nc(-c2ccnc3[nH]ccc23)n1 (stereo not given) + COC1C(OC(N)=O)C(O)C(Oc2ccc3c(O)c(NC(=O)c4ccc(O)c(CC=C(C)C)c4)c(=O)oc3c2C)OC1(C)C
5.77 µM: IC50 (second compound 0.1 µM)
6.05 µM: IC50 (second compound 0.0316 µM)
7.19 µM: IC50 (second compound 3.16 µM)
5.46 µM: IC50 (second compound 1 µM)
6.98 µM: IC50 (second compound 0.316 µM)
inactive: viability, T/C [1] 110% | viability, T/C [2] 116% | viability, T/C [3] 102% | viability, T/C [4] 85.3% | viability, T/C [5] 66.5% | viability, T/C [6] 38.1% | viability, T/C [7] 110% | viability, T/C [8] 95% | viability, T/C [9] 111% | viability, T/C [10] 106% | viability, T/C [11] 60.9% | viability, T/C [12] 39.9% | viability, T/C [13] 98.9% | viability, T/C [14] 98.7% | viability, T/C [15] 110% | viability, T/C [16] 106% | viability, T/C [17] 69.9% | viability, T/C [18] 41% | viability, T/C [19] 112% | viability, T/C [20] 122% | viability, T/C [21] 109% | viability, T/C [22] 85.8% | viability, T/C [23] 65% | viability, T/C [24] 35.7% | viability, T/C [25] 101% | viability, T/C [26] 122% | viability, T/C [27] 105% | viability, T/C [28] 101% | viability, T/C [29] 70.4% | viability, T/C [30] 41.8% | viability, T/C [31] 122% | viability, T/C [32] 103% | viability, T/C [33] 109% | viability, T/C [34] 90.9% | viability, T/C [35] 73.6% | viability, T/C [36] 37.6%
6.75 µM: IC50 (second compound 10 µM)

O=C(Nc1ccc(O)c(NS(=O)(=O)c2ccc(F)cc2)c1)c1ccc(-c2ccccc2)cc1 + Nc1ccc(C#CCN(C(=O)Cc2ncc(C(F)(F)F)cc2C(F)(F)F)c2ccc(F)cc2)nn1
9.34 µM: IC50 (second compound 1 µM)
8.49 µM: IC50 (second compound 0.1 µM)
8.65 µM: IC50 (second compound 0.316 µM)
inactive: viability, T/C [1] 104% | viability, T/C [2] 119% | viability, T/C [3] 97.4% | viability, T/C [4] 98.2% | viability, T/C [5] 97.3% | viability, T/C [6] 46.1% | viability, T/C [7] 102% | viability, T/C [8] 99.8% | viability, T/C [9] 91.4% | viability, T/C [10] 101% | viability, T/C [11] 95.6% | viability, T/C [12] 42.4% | viability, T/C [13] 108% | viability, T/C [14] 88.4% | viability, T/C [15] 107% | viability, T/C [16] 91.8% | viability, T/C [17] 85.9% | viability, T/C [18] 44.9% | viability, T/C [19] 108% | viability, T/C [20] 94.5% | viability, T/C [21] 95.7% | viability, T/C [22] 97.5% | viability, T/C [23] 87.3% | viability, T/C [24] 47.2% | viability, T/C [25] 106% | viability, T/C [26] 92.1% | viability, T/C [27] 92.7% | viability, T/C [28] 86.8% | viability, T/C [29] 79.9% | viability, T/C [30] 45.1% | viability, T/C [31] 83.2% | viability, T/C [32] 92.4% | viability, T/C [33] 88% | viability, T/C [34] 76% | viability, T/C [35] 74.7% | viability, T/C [36] 50.6%
> 10 µM: IC50 (second compound 10 µM)
9.16 µM: IC50 (second compound 0.0316 µM)
8.68 µM: IC50 (second compound 3.16 µM)

COc1cccc2c1C(=O)c1c(O)c3c(c(O)c1C2=O)CC(O)(C(=O)CO)CC3OC1CC(N)C(O)C(C)O1 (stereo not given) + COC1C(OC(N)=O)C(O)C(Oc2ccc3c(O)c(NC(=O)c4ccc(O)c(CC=C(C)C)c4)c(=O)oc3c2C)OC1(C)C
0.826 µM: IC50 (second compound 3.16 µM)
0.541 µM: IC50 (second compound 10 µM)
inactive: viability, T/C [1] 81.9% | viability, T/C [2] 96.5% | viability, T/C [3] 55.2% | viability, T/C [4] 40.7% | viability, T/C [5] 9.45% | viability, T/C [7] 86.8% | viability, T/C [8] 97.5% | viability, T/C [9] 75.7% | viability, T/C [10] 44.9% | viability, T/C [11] 11.2% | viability, T/C [13] 99.2% | viability, T/C [14] 96% | viability, T/C [15] 54.9% | viability, T/C [16] 37.8% | viability, T/C [17] 13.1% | viability, T/C [19] 93% | viability, T/C [20] 87.5% | viability, T/C [21] 76.7% | viability, T/C [22] 49.2% | viability, T/C [23] 11.9% | viability, T/C [25] 92.6% | viability, T/C [26] 95.5% | viability, T/C [27] 76.7% | viability, T/C [28] 45.6% | viability, T/C [29] 10.3% | viability, T/C [31] 105% | viability, T/C [32] 104% | viability, T/C [33] 65.2% | viability, T/C [34] 30%
0.909 µM: IC50 (second compound 1 µM)
active: viability, T/C [6] 3.09% | viability, T/C [12] 3% | viability, T/C [18] 0.51% | viability, T/C [24] 0.78% | viability, T/C [30] 0.92% | viability, T/C [35] 10.7% | viability, T/C [36] 1.25%
0.815 µM: IC50 (second compound 0.1 µM)
0.564 µM: IC50 (second compound 0.0316 µM)
0.527 µM: IC50 (second compound 0.316 µM)

CCc1cc2c(N3CCc4c(cc(Cn5ccnc5)cc4-c4cn(C)nc4C(F)(F)F)C3=O)cc(C)nc2c(OC)n1 + Cc1cccc(N(C)C(=O)C2C(O)CCN2c2nc(C)cc(C(F)(F)F)c2C#N)c1
inactive: viability, T/C [1] 96.3% | viability, T/C [2] 92.5% | viability, T/C [3] 96.6% | viability, T/C [4] 104% | viability, T/C [5] 94.8% | viability, T/C [6] 61.3% | viability, T/C [7] 109% | viability, T/C [8] 109% | viability, T/C [9] 90.3% | viability, T/C [10] 94.8% | viability, T/C [11] 80.9% | viability, T/C [12] 71.3% | viability, T/C [13] 108% | viability, T/C [14] 115% | viability, T/C [15] 121% | viability, T/C [16] 106% | viability, T/C [17] 87.9% | viability, T/C [18] 65.3% | viability, T/C [19] 105% | viability, T/C [20] 100% | viability, T/C [21] 99.7% | viability, T/C [22] 90.2% | viability, T/C [23] 88.3% | viability, T/C [24] 58.5% | viability, T/C [25] 117% | viability, T/C [26] 98.3% | viability, T/C [27] 95.3% | viability, T/C [28] 84.5% | viability, T/C [29] 80.2% | viability, T/C [30] 70.2% | viability, T/C [31] 109% | viability, T/C [32] 117% | viability, T/C [33] 106% | viability, T/C [34] 82.2% | viability, T/C [35] 77.8% | viability, T/C [36] 58.6%
> 10 µM: IC50 (second compound 0.0316 µM) | IC50 (second compound 0.1 µM) | IC50 (second compound 0.316 µM) | IC50 (second compound 1 µM) | IC50 (second compound 3.16 µM) | IC50 (second compound 10 µM)

CC1COCCN1c1cc(C2(S(C)(=N)=O)CC2)nc(-c2ccnc3[nH]ccc23)n1 (stereo not given) + Nc1ccc(C#CCN(C(=O)Cc2ncc(C(F)(F)F)cc2C(F)(F)F)c2ccc(F)cc2)nn1
2.9 µM: IC50 (second compound 10 µM)
5.54 µM: IC50 (second compound 0.316 µM)
8.31 µM: IC50 (second compound 0.0316 µM)
inactive: viability, T/C [1] 123% | viability, T/C [2] 89.2% | viability, T/C [3] 110% | viability, T/C [4] 84.3% | viability, T/C [5] 63.9% | viability, T/C [6] 47% | viability, T/C [7] 117% | viability, T/C [8] 117% | viability, T/C [9] 100% | viability, T/C [10] 83.8% | viability, T/C [11] 56.3% | viability, T/C [12] 40.3% | viability, T/C [13] 107% | viability, T/C [14] 110% | viability, T/C [15] 87.3% | viability, T/C [16] 89.2% | viability, T/C [17] 63% | viability, T/C [18] 34.9% | viability, T/C [19] 105% | viability, T/C [20] 111% | viability, T/C [21] 94.4% | viability, T/C [22] 94.8% | viability, T/C [23] 59.1% | viability, T/C [24] 39.8% | viability, T/C [25] 99% | viability, T/C [26] 91.8% | viability, T/C [27] 102% | viability, T/C [28] 82.1% | viability, T/C [29] 53.2% | viability, T/C [30] 35.5% | viability, T/C [31] 91.5% | viability, T/C [32] 99.2% | viability, T/C [33] 84.8% | viability, T/C [34] 76% | viability, T/C [35] 46.7% | viability, T/C [36] 37.1%
3.74 µM: IC50 (second compound 3.16 µM)
5.12 µM: IC50 (second compound 0.1 µM)
5.56 µM: IC50 (second compound 1 µM)
